Reference: patent publication US20200338042A1, “USE OF DAPHNETIN IN TREATMENT OF AGE-RELATED COGNITIVE DECLINE” (XI'AN JIAOTONG UNIVERSITY, priority 2019, published 2020)

Columns and labels:
Assay type in all cases: in vivo
Aβ42 = assay: ELISA detection of soluble Aβ42 in cerebral cortex tissues of APP/PS1 mice; settings: Group AD+Daphnetin (APP/PS1 mice, 100 mg/kg/day intragastrically) compared to Group AD+ddH2O; one week after water maze; FIG. 2B
Source text: (§1) APP/PS1 transgenic mouse model as the Alzheimer's disease transgenic mouse model was used in the experiments. The APP/PS1 double-transgenic mice overexpressing human Aβ precursor protein (APP) and presenilin 1 (PS1) in the brains can simulate typical pathological and neurological symptoms, such as Aβ deposition and cognitive function degeneration, of human AD.
(§2) The contents of Aβ40 and Aβ42 in the brain were detected by the enzyme-linked immunosorbent assay (ELISA) method to observe the effect of daphnetin for ameliorating abnormal protein deposition of the mice.
(§3) Daphnetin was purchased from Nanjing Puyi Biotechnology Co., Ltd.; Aβ40 and […] ELISA detection kits were purchased from Invitrogen Corporation. […]
(§4) Aβ plaque is a significant pathological feature of Alzheimer's disease. As Aβ40 and Aβ42 are most common in the process of producing Aβ, the contents of soluble Aβ40 and Aβ42 in the cerebral cortex tissues were detected by the ELISA method.
(§5) First, the cortex tissue was homogenized using a guanidine salt buffer (5 mol/L guanidine hydrochloride/50 mmol Tris HCl), and the tissue homogenate was centrifuged at 4° C. for 10 minutes at 10,000 g. […] The absorbance (OD450) at a wavelength of 450 nm was measured by a FlexStage3 microplate reader. Protein quantification was performed by using BCA method for ELISA protein calibration. […]

Aβ40 = assay: ELISA detection of soluble Aβ40 in cerebral cortex tissues of APP/PS1 mice; settings: Group AD+Daphnetin (APP/PS1 mice, 100 mg/kg/day intragastrically) compared to Group AD+ddH2O; one week after water maze; FIG. 2A
Source text: as §1, §2, §3, §4, §5

APP/PS1 transgenic mice = assay: Morris water maze experiment in APP/PS1 transgenic mice; settings: for path length for finding the platform in water maze: FIG. 1B
Source text: as §1
A water maze experiment was used to observe the effect of daphnetin for improving the cognitive function of the mice.
The 3-month-old APP/PS1 transgenic mice and control mice were purchased from the Model Animal Center of Nanjing University. All mice were fed in an environment with a temperature from 23° C. to 25° C., a humidity of 60%, and a 12 h/12 h day/night light cycles. Mice had free access to food and water during the experiment.
After adapting to the feeding environment, the experimental mice were divided into four groups: 1) a group of wild type (WT) mice to which double-distilled water (ddH2O) was daily administered intragastrically (Group WT+ddH2O), the number (n) of the mice is 11 (n=11); 2) a group of wild type mice to which daphnetin was daily administered intragastrically at 100 mg/kg/day (Group WT+Daphnetin), n=12; 3) a group of APP/PS1 mice to which ddH2O was daily administered intragastrically (Group AD+ddH2O), n=15; 4) a group of APP/PS1 mice to which daphnetin was daily administered intragastrically at 100 mg/kg/day (Group AD+Daphnetin), n=14. The entire experiment was lasted for 12 months.
The daily intragastric administrations of daphnetin or ddH2O were lasting for 9 months to corresponding groups of mice before the water maze experiment.
Morris water maze experiment is a classic way to test spatial learning and memory abilities in mice. The experiment was conducted in a round swimming pool with a diameter of 120 cm, divided into four quadrants I, II, III, and IV. A small round platform with a diameter of 7.5 cm was placed in the center the quadrant IV, and submerged 1 cm below the water surface. Four different-shaped markers as visual cues were placed corresponding to the four quadrants on the curtain support around the swimming pool. During the experiment, the water temperature was kept at 25° C., the surroundings were kept quiet, and the swimming pool was isolated from the external environment by the curtain. Each mouse was allowed to swim freely in the swimming pool for 60 seconds (s) on the day before the formal experiment to adapt to the swimming environment. […] The camera placed on the top of the pool recorded the paths of the mice finding the hidden platform in the swimming pool. […] The times and distances that the mice travels to the platform recorded by the camera video tracking system were used to analyze the learning and memory of the mice. […]

SMILES: O=c1ccc2ccc(O)c(O)c2o1 [Daphnetin, 7,8-dihydroxycoumarin]
- level of Aβ42 in the cerebral cortex tissues (Aβ42): significantly reduced
- level of Aβ40 in the cerebral cortex tissues (Aβ40): significantly reduced
- AUC of swimming time (escape latency) in water maze, Group AD+ddH2O compared to Group AD+Daphnetin (APP/PS1 transgenic mice; 5-day training, worded as AD+ddH2O relative to AD+Daphnetin (100 mg/kg/day intragastrically, 9 months), i.e. lower AUC with daphnetin, FIG. 1C): increased significantly
- path length for finding the platform in water maze (APP/PS1 transgenic mice; day 4 of training, Group AD+Daphnetin (APP/PS1 mice, 100 mg/kg/day intragastrically, 9 months) compared to Group AD+ddH2O): significant shortened
- escape latency in water maze (time to find the escape platform) (APP/PS1 transgenic mice; day 5 of training, Group AD+Daphnetin (APP/PS1 mice, 100 mg/kg/day intragastrically, 9 months) compared to Group AD+ddH2O, FIG. 1A): significantly shortened
- path length for finding the platform in water maze (APP/PS1 transgenic mice; day 5 of training, Group AD+Daphnetin (APP/PS1 mice, 100 mg/kg/day intragastrically, 9 months) compared to Group AD+ddH2O): significant shortened
